Measurements from PubChem BioAssay (NCI).
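Interpolation was linear, between the two tested concentrations surrounding the appropriate level; five concentrations were tested over 48 hours in 96-well plates. TGI marks complete inhibition of growth.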

Columns and labels:
Experiment in all cases: NCI-60 cell line screen, 48 h
IGROV1 ovarian = test system: IGROV1 ovarian
SF-295 CNS = test system: SF-295 CNS
LOX IMVI melanoma = test system: LOX IMVI melanoma
HCC-2998 colon = test system: HCC-2998 colon
HS 578T breast = test system: HS 578T breast
HL-60(TB) leukemia = test system: HL-60(TB) leukemia
RPMI-8226 leukemia = test system: RPMI-8226 leukemia
NCI/ADR-RES ovarian = test system: NCI/ADR-RES ovarian
UO-31 renal = test system: UO-31 renal
OVCAR-8 ovarian = test system: OVCAR-8 ovarian
SN12C renal = test system: SN12C renal
OVCAR-4 ovarian = test system: OVCAR-4 ovarian
SK-MEL-28 melanoma = test system: SK-MEL-28 melanoma
A498 renal = test system: A498 renal
SF-539 CNS = test system: SF-539 CNS
MDA-MB-231 breast = test system: MDA-MB-231 breast
786-0 renal = test system: 786-0 renal
NCI-H226 lung = test system: NCI-H226 lung
U251 CNS = test system: U251 CNS
OVCAR-3 ovarian = test system: OVCAR-3 ovarian
NCI-H460 lung = test system: NCI-H460 lung
SK-OV-3 ovarian = test system: SK-OV-3 ovarian
HT29 colon = test system: HT29 colon
T-47D breast = test system: T-47D breast
CCRF-CEM leukemia = test system: CCRF-CEM leukemia
OVCAR-5 ovarian = test system: OVCAR-5 ovarian
MALME-3M melanoma = test system: MALME-3M melanoma
PC-3 prostate = test system: PC-3 prostate
COLO 205 colon = test system: COLO 205 colon
TK-10 renal = test system: TK-10 renal
KM12 colon = test system: KM12 colon
HCT-116 colon = test system: HCT-116 colon
HOP-92 NSCLC = test system: HOP-92 NSCLC
HOP-62 NSCLC = test system: HOP-62 NSCLC
MDA-N = test system: MDA-N
SK-MEL-5 melanoma = test system: SK-MEL-5 melanoma
BT-549 breast = test system: BT-549 breast
MOLT-4 leukemia = test system: MOLT-4 leukemia
SK-MEL-2 melanoma = test system: SK-MEL-2 melanoma
SNB-19 CNS = test system: SNB-19 CNS
UACC-62 melanoma = test system: UACC-62 melanoma
SR leukemia = test system: SR leukemia
MDA-MB-435 = test system: MDA-MB-435
SNB-75 CNS = test system: SNB-75 CNS
ACHN renal = test system: ACHN renal
A549 NSCLC = test system: A549 NSCLC
UACC-257 melanoma = test system: UACC-257 melanoma
DU-145 prostate = test system: DU-145 prostate
M14 melanoma = test system: M14 melanoma
EKVX NSCLC = test system: EKVX NSCLC
MCF7 breast = test system: MCF7 breast
NCI-H23 lung = test system: NCI-H23 lung
NCI-H522 lung = test system: NCI-H522 lung
SW-620 colon = test system: SW-620 colon
K-562 leukemia = test system: K-562 leukemia
HCT-15 colon = test system: HCT-15 colon
CAKI-1 renal = test system: CAKI-1 renal
RXF 393 renal = test system: RXF 393 renal
SF-268 CNS = test system: SF-268 CNS

Measured: TGI

COc1ccc(CN(Cc2ccc(OC)cc2)C(=O)CC2(O)C=CCC2)cc1 (centres undefined)
> 100 µM: IGROV1 ovarian | SF-295 CNS | LOX IMVI melanoma | HCC-2998 colon | HS 578T breast | HL-60(TB) leukemia | RPMI-8226 leukemia | NCI/ADR-RES ovarian | UO-31 renal | OVCAR-8 ovarian | SN12C renal | OVCAR-4 ovarian | SK-MEL-28 melanoma | A498 renal | SF-539 CNS | MDA-MB-231 breast | 786-0 renal | NCI-H226 lung | U251 CNS | OVCAR-3 ovarian | NCI-H460 lung | SK-OV-3 ovarian | HT29 colon | T-47D breast | CCRF-CEM leukemia | OVCAR-5 ovarian | MALME-3M melanoma | PC-3 prostate | COLO 205 colon | TK-10 renal | KM12 colon | HCT-116 colon | HOP-92 NSCLC | HOP-62 NSCLC | MDA-N | SK-MEL-5 melanoma | BT-549 breast | MOLT-4 leukemia | SK-MEL-2 melanoma | SNB-19 CNS | UACC-62 melanoma | SR leukemia | MDA-MB-435 | SNB-75 CNS | ACHN renal | A549 NSCLC | UACC-257 melanoma | DU-145 prostate | M14 melanoma | EKVX NSCLC | MCF7 breast | NCI-H23 lung | NCI-H522 lung | SW-620 colon | K-562 leukemia | HCT-15 colon | CAKI-1 renal

Nc1nc(N)c(N=Nc2ccc([As](=O)(O)O)cc2)c(=O)[nH]1
> 100 µM: IGROV1 ovarian | RXF 393 renal | SF-295 CNS | LOX IMVI melanoma | HCC-2998 colon | HS 578T breast | HL-60(TB) leukemia | RPMI-8226 leukemia | NCI/ADR-RES ovarian | UO-31 renal | OVCAR-8 ovarian | SN12C renal | OVCAR-4 ovarian | SK-MEL-28 melanoma | A498 renal | MDA-MB-231 breast | 786-0 renal | NCI-H226 lung | U251 CNS | OVCAR-3 ovarian | NCI-H460 lung | SK-OV-3 ovarian | SF-268 CNS | HT29 colon | T-47D breast | CCRF-CEM leukemia | OVCAR-5 ovarian | MALME-3M melanoma | PC-3 prostate | COLO 205 colon | TK-10 renal | KM12 colon | HCT-116 colon | HOP-62 NSCLC | MDA-N | SK-MEL-5 melanoma | BT-549 breast | MOLT-4 leukemia | SK-MEL-2 melanoma | SNB-19 CNS | UACC-62 melanoma | SR leukemia | MDA-MB-435 | SNB-75 CNS | ACHN renal | A549 NSCLC | UACC-257 melanoma | DU-145 prostate | M14 melanoma | EKVX NSCLC | MCF7 breast | NCI-H23 lung | NCI-H522 lung | SW-620 colon | K-562 leukemia | HCT-15 colon | CAKI-1 renal
